Experimental data: patent US8318914B2, “Elongases and methods for producing polyunsaturated fatty acids in transgenic organisms” (priority 2007, dated 2012)
Where two headings read alike, the source gives them in different places.

Experiments:
[1] = test system: D6Elo(Pir); test: Yeast feeding assay: elongation of fed fatty acids by yeast expressing pYES-D6Elo(Pir), GC analysis of FAMEs; format: cell-based, Pythium irregulare; conditions: for Elongation efficiency in percent, pYES-D6Elo(Pir): 250 μM fatty acid fed to transformed yeast INVSC-1, 12 h induction medium, (area product/area substrate + product)*100
Description: (§1) Plasmid pYES-d6Elo(Pir) was then transformed into the yeast strain INVSC-1 (Invitrogen) following the manufacturer's instructions and selected on plates with DOB-U agar on the basis of uracil auxotrophy. Positive colonies were identified by PCR. To this end, in each case 1 μl of defrosted cells, 200 μM dNTPs, 2.5 U Taq-polymerase and 100 pmol of each primer were used to carry out in a total volume of 50 μl. The PCR conditions were as follows: first denaturation at 95° C. for 5 minuten, followed by 30 cycles of 30 seconds at 94° C., 1 minute at 55° C. and 2 minutes at 72° C., and a last elongation step for 10 minutes at 72° C. In parallel, the empty vector pYES2.1/V5-His-TOPO was transformed in the abovedescribed manner into competent yeast cells of the strain INVSC-1. Yeast cells with the plasmid pYES-d6Elo(Pir) and pYES2.1/V5-His-TOPO, respectively, were incubated for 12 h in liquid DOB-U medium at 28° C., 200 rpm, and then for a further 12 h in induction medium (DOB-U+2% (w/v) galactose+2% (w/v) raffinose) and 250 μM of fatty acids added to the medium. The specificity and activity of the gene to be characterized can be determined with reference to the added fatty acids.
(§2) The yeast cells from the main cultures were harvested by centrifugation (100×g, 5 min, 20° C.) and washed with 100 mM NaHCO3, pH 8.0 to remove residual medium and fatty acids. Starting with the yeast cell sediments, fatty acid methyl esters (FAMEs) were prepared by acid methanolysis. To this end, the cell sediments were incubated for one hour at 80° C. together with 2 ml of 1 N methanolic sulfuric acid and 2% (v/v) of dimethoxypropane. The FAMEs were extracted twice with petroleum ether (PE). To remove nonderivatized fatty acids, the organic phases were washed in each case once with 2 ml of 100 mM NaHCO3, pH 8.0 and 2 ml of distilled water. Thereafter, the PE phases were dried with Na2SO4, evaporated under argon and taken up in 100 μl of PE. […] The conditions for the GLC analysis are as follows: the oven temperature was programmed from 50° C. to 250° C. with an increment of 5° C./min and finally 10 min at 250° C. (holding).
(§3) The signals are identified by comparing the retention times with corresponding fatty acid standards (Sigma). […] Biochem. Biophys.
(§4) Table 3 describes the reaction of fatty acids by the plasmids which had been introduced into the yeasts. The conversion rates for the various exogenously added fatty acids are indicated in percent elongation efficiency. The blank vector pYES2.1/V5-His-TOPO acts as control for the activity of the gene sequence D6Elo(Pir). Fatty acids which have been formed in the yeasts with the vector pYES-D6Elo(Pir), but not in yeasts with the vector pYES2.1/V5-His-TOPO, can be attributed to the activity of the D6Elo(Pir) translation product.

[2] = test system: D5Elo(Eg); format: cell-based, Euglena gracilis
Description: Plasmid pYES-D5Elo(Eg) was then transformed into the yeast strain INVSC-1 (Invitrogen) following the manufacturer's instructions and selected on plates with DOB-U agar on the basis of uracil auxotrophism. […] In parallel, the empty vector pYES2.1/V5-His-TOPO was transformed in the abovedescribed manner into competent yeast cells of the strain INVSC-1. Yeast cells with the plasmid pYES-D5Elo(Eg) and pYES2.1/V5-His-TOPO were incubated for 12 h in liquid DOB-U medium at 28° C., 200 rpm, and then for a further 12 h in induction medium (DOB-U+2% (w/v) galactose+2% (w/v) raffinose) and 250 μM of fatty acids added to the medium. The specificity and activity of the gene to be characterized can be determined with reference to the added fatty acids. […]
The substrate specificity of D5Elo(Eg) [SEQ ID NO: 8] was determined after expression and feeding of various fatty acids (FIG. 2). […] In FIG. 2A, yeasts were analyzed which had not been fed exogenously added fatty acids. […] In FIG. 2C, the yeast cells were analyzed after transformation with plasmid pYES-D5Elo(Eg) and feeding the fatty acid 20:4Δ5,8,11,14. […] In FIG. 2D, the yeast cells were analyzed after transformation with plasmid pYES-D5Elo(Eg) and feeding the fatty acid 20:5Δ5,8,11,14,17.

[3] = test system: yeast strain INVSC-1 with empty vector pYES2.1/V5-His-TOPO; test: Vector control of Example 6: yeast with empty vector pYES2.1/V5-His-TOPO fed fatty acids; format: cell-based; conditions: 250 μM fatty acid fed to yeast INVSC-1, 12 h induction medium
Description: (§5) Plasmid pYES-D5Elo(Eg) was then transformed into the yeast strain INVSC-1 (Invitrogen) following the manufacturer's instructions and selected on plates with DOB-U agar on the basis of uracil auxotrophism. Positive colonies were identified by PCR. To this end, in each case 1 μl of defrosted cells, 200 μM dNTPs, 2.5 U Taq polymerase and 100 pmol of each primer were used to carry out in a total volume of 50 μl. The PCR conditions are as follows: first denaturation at 95° C. for 5 minutes, followed by 30 cycles of 30 seconds at 94° C., 1 minute at 55° C. and 2 minutes at 72° C., and a last elongation step for 10 minutes at 72° C. In parallel, the empty vector pYES2.1/V5-His-TOPO was transformed in the abovedescribed manner into competent yeast cells of the strain INVSC-1. Yeast cells with the plasmid pYES-D5Elo(Eg) and pYES2.1/V5-His-TOPO were incubated for 12 h in liquid DOB-U medium at 28° C., 200 rpm, and then for a further 12 h in induction medium (DOB-U+2% (w/v) galactose+2% (w/v) raffinose) and 250 μM of fatty acids added to the medium. The specificity and activity of the gene to be characterized can be determined with reference to the added fatty acids.
The yeast cells from the main cultures were harvested by centrifugation (100×g, 5 min, 20° C.) and washed with 100 mM NaHCO3, pH 8.0 to remove residual medium and fatty acids. […]

[4] = test system: yeast strain INVSC-1 with empty vector pYES2.1/V5-His-TOPO; test: Vector control of Example 4: yeast with empty vector pYES2.1/V5-His-TOPO fed fatty acids; format: cell-based; conditions: blank vector control; 250 μM fatty acid fed to yeast INVSC-1, 12 h induction medium
Description: as §1, §2, §3, §4

[5] = test system: D9Elo(Ro); format: cell-based, Rhizopus oryzae; conditions: 250 μM fatty acid fed to transformed yeast INVSC-1, 12 h induction medium
Description: Positive colonies were identified by PCR. […] In parallel, the empty vector pYES2.1/V5-His-TOPO was transformed in the abovedescribed manner into competent yeast cells of the strain INVSC-1. […] The specificity and activity of the gene to be characterized can be determined with reference to the added fatty acids.
as §2, §3

[6] = test system: yeast strain INVSC-1 with empty vector pYES2.1/V5-His-TOPO; test: Vector control of Example 5: yeast with empty vector pYES2.1/V5-His-TOPO fed fatty acids; format: cell-based; conditions: 250 μM fatty acid fed to yeast INVSC-1, 12 h induction medium
Description: as §5, with “pYES-D9Elo(Ro)” for “pYES-D5Elo(Eg)”, “was” for “was then”, “auxotrophy.” for “auxotrophism.”, “were” for “are”
The yeast cells from the main cultures were harvested by centrifugation (100×g, 5 min, 20° C.) and washed with 100 mM NaHCO3, pH 8.0 to remove residual medium and fatty acids. Starting with the yeast cell sediments, fatty acid methyl esters (FAMEs) were prepared by acid methanolysis. To this end, the cell sediments were incubated for one hour at 80° C. together with 2 ml of 1 N methanolic sulfuric acid and 2% (v/v) of dimethoxypropane. The FAMEs were extracted twice with petroleum ether (PE). To remove nonderivatized fatty acids, the organic phases were washed in each case once with 2 ml of 100 mM NaHCO3, pH 8.0 and 2 ml of distilled water. Thereafter, the PE phases were dried with Na2SO4, evaporated under argon and taken up in 100 μl of PE. The samples were separated on a DB-23 capillary column (30 m, 0.25 mm, 0.25 μm, Agilent) in a Hewlett-Packard 6850 gas chromatograph equipped with flame ionization detector. The conditions for the GLC analysis are as follows: the oven temperature was programmed from 50° C. to 250° C. with an increment of 5° C./min and finally 10 min at 250° C. (holding).
The signals are identified by comparing the retention times with corresponding fatty acid standards (Sigma). The methodology is described for example in Napier and Michaelson, 2001, Lipids. 36(8):761-766; Sayanova et al., 2001, Journal of Experimental Botany. 52(360):1581-1585, Sperling et al., 2001, Arch. Biochem. Biophys. 388(2):293-298 and Michaelson et al., 1998, FEBS Letters. 439(3):215-218.

Structure (SMILES): CCCCC/C=C\C/C=C\C/C=C\C/C=C\CCCC(=O)O [20:4Δ5, 8, 11, 14, arachidonic acid]
- Elongation efficiency in percent, pYES-D6Elo(Pir) [1]: 6.7%
- Substrate preference of D6Elo(Pir), in words ([1]; yeast feeding, summary of Table 3): Less activity
- Elongation efficiency as a percentage, D5Elo(EG) ([2]; 250 μM fatty acid fed to transformed yeast INVSC-1, 12 h induction medium): 46.1%
- Elongation efficiency as a percentage, pYes2.1/V5-His-TOPO [3]: 0.0%
- Elongation efficiency in percent, pYES2.1/V5-His-TOPO [4]: 0.0%

Structure (SMILES): CCCCCC/C=C\CCCCCCCCCC(=O)O [18:1Δ11, cis-vaccenic acid]
- Elongation efficiency in percent, pYES-D6Elo(Pir) [1]: 28.6%
- Elongation efficiency in percent, pYES2.1/V5-His-TOPO [4]: 0.0%

Structure (SMILES): CCCCCC/C=C\CCCCCCCC(=O)O [16:1A9]
- Elongation efficiency as a percentage, D9Elo(Ro) [5]: 36.6%
- Elongation efficiency as a percentage, pYes2.1/V5-His-TOPO [6]: 2.4%

Structure (SMILES): CCCCC/C=C\C/C=C\CCCCCCCC(=O)O [18:2Δ9, 12, linoleic acid]
- Elongation efficiency in percent, pYES-D6Elo(Pir) [1]: 11.1%
- Elongation efficiency as a percentage, D9Elo(Ro) [5]: 19.3%
- Elongation efficiency as a percentage, pYes2.1/V5-His-TOPO [6]: 0.0%
- Elongation efficiency in percent, pYES2.1/V5-His-TOPO [4]: 1.1%

Structure (SMILES): CCCCCCCC/C=C\CCCCCCCC(=O)O [18:1Δ9, oleic acid]
- Elongation efficiency as a percentage, D9Elo(Ro) [5]: 8.3%
- Elongation efficiency as a percentage, pYes2.1/V5-His-TOPO [6]: 0.0%

Structure (SMILES): CCCCC/C=C\C/C=C\C/C=C\CCCCC(=O)O [18:3Δ6, 9, 12, γ-linolenic acid]
- Elongation efficiency in percent, pYES-D6Elo(Pir) [1]: 27.1%
- Elongation efficiency as a percentage, D5Elo(EG) [2]: 2.9%
- Elongation efficiency as a percentage, pYes2.1/V5-His-TOPO [3]: 0.9%
- Elongation efficiency in percent, pYES2.1/V5-His-TOPO [4]: 1.3%

Structure (SMILES): CC/C=C\C/C=C\C/C=C\CCCCCCCC(=O)O [18:3Δ9, 12, 15, linolenic acid]
- Elongation efficiency in percent, pYES-D6Elo(Pir) [1]: 19.1%
- Elongation efficiency as a percentage, D9Elo(Ro) [5]: 49.3%
- Elongation efficiency as a percentage, pYes2.1/V5-His-TOPO [6]: 0.0%
- Elongation efficiency in percent, pYES2.1/V5-His-TOPO [4]: 1.4%

Structure (SMILES): CC/C=C\C/C=C\C/C=C\C/C=C\CCCCC(=O)O [18:4Δ6, 9, 12, 15, stearidonic acid]
- Elongation efficiency in percent, pYES-D6Elo(Pir) [1]: 38.7%
- Elongation efficiency in percent, pYES2.1/V5-His-TOPO [4]: 1.2%
